According to patent US20200270588A1, “GLUCOSYL TRANSFERASE POLYPEPTIDES AND METHODS OF USE” (Syngenta Participations AG, priority 2017, published 2020):

T1: Zea mays bx9 glucosyl transferase (C-terminally his tagged SEQ ID NO: 1) (Zea mays, UniProt B4G072)
T1 construct: His tag (C); made in house; host or cells: E. coli BL21 (DE3), pET24a
T1 sequence (B4G072 1-462): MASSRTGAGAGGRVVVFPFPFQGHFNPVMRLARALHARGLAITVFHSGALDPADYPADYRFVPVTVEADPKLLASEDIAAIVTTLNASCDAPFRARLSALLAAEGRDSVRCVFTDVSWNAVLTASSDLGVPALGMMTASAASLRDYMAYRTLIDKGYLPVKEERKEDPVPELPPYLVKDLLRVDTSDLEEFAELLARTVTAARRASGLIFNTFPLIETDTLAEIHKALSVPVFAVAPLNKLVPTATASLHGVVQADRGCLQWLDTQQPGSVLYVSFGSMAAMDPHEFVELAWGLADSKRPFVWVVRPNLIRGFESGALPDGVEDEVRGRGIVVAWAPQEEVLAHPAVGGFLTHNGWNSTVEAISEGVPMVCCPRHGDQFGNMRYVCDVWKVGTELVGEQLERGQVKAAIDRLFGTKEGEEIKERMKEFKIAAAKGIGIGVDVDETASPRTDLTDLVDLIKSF


Experiments:
[1] = target: T2, SEQ ID NO 23, mutant of Zea mays bx9 glucosyl transferase (Zea mays, UniProt B4G072, A334K/F21Y/L194C/M279F/S117V); assay: UDP-Glo glucosyl transferase assay, purified enzyme; format: biochemical; conditions: lower block, concentration printed only in upper block: V 0.300, VII 0.210; IV, VIII, XI, XXI, XX, XVIII, XVI, XV, XIV 0.200; others 1.000 mM
T2 construct: His tag (C); made in house
Description: (§1) Glucosyl transferase activity is assayed via measurement of acceptor substrate-dependent production of UDP from ultrapure UDP-glucose using the Promega UDP-Glo™ method and according to the manufacturer's instructions. Assays are run in 96 well microtiter plates.
(§2) Enzyme, typically at a stock concentration of ˜2 mg/ml is diluted to an appropriate concentration in 50 mM K^+ Hepes buffer at pH7.5 containing 0.5 mg/mL bovine serum albumin (BSA) and 5 ul aliquots of this diluted enzyme added to each well of a Perkin Elmer white ½ area 96 well plate. […] Assays are run for an appropriate time (usually 10 to 60 min) so that the amount of UDP formed lies within the most nearly linear part of the UDP standard curve and are stopped with the addition and mixing of 25 ul UDP-Glo™ detection reagent (prepared as described below). Plates are then incubated at room temperature for 60 minutes and then read in a luminescence plate reader (Perkin Elmer Envision 2130 Multilabel Reader). A UDP standard curve is run alongside each set of assays and reagent blank control assays run with DMSO in place of test herbicide. Typically, 300 pmol of UDP corresponds to a Relative Luminescence Unit (RLU) reading of about 1.5E7 and the response curve between 0 and 600 pmol is fitted to a polynomial function (see for example FIG. 2).
(§3) The UDP-Glo™ reagents are made up and used according to the manufacturer's instructions. Thus, Nucleotide Detection Buffer and ATP are combined to make nucleotide detection reagent (NDR) dispensed into aliquots and frozen to be freshly thawed before use. […]
(§4) Table 13 summarizes the results obtained from assays, run as described in Example 1, using a variety of alcohol and aminal PSII herbicides as substrates of the Zea mays bx9 w/t (i.e. C-terminally his tagged SEQ ID no 1) and various mutants of the same, selected from SEQ ID NO: 16-30). All of these proteins were C-terminally his-tagged, expressed and purified as described in Example 1. Assays were run and analyzed as described in example 1. It is seen that various of the mutations herein and combinations thereof led to significant improvements (over the w/t bx9 protein) in catalytic activity versus various of the herbicides and that these improvements are often of sufficient magnitude to be useful for conferring improved herbicide tolerance upon crop. This is especially the case given that even the unmutated w/t bx9 enzyme which has only modest glucosyl transferase activity (for example against compounds V and VI) was nevertheless adequately active to confer significant herbicide tolerance in the glass house (as shown in example 9) even without mutational improvement. It is also seen that particular mutations can lead to very much improved activity in respect of some chemistries but not to others but that, overall, there is at least one variant within the scope of the current invention that provides significant and useful improvement in tolerance to each of the chemistries tested.

[2] = target: T3, SEQ ID NO 19, mutant of Zea mays bx9 glucosyl transferase (Zea mays, UniProt B4G072, A281K/A334K/L194V/M279F/S117V); assay: as above; format: biochemical; conditions: herbicide mM: V 0.300, VI 0.250, VII 0.210; IV, VIII, XI, XXI, XX, XVIII, XVI, XV, XIV 0.200; others 1.000
T3 construct: His tag (C); made in house
Description: as §1, §2, §3, §4

[3] = target: T4, SEQ ID NO 22, mutant of Zea mays bx9 glucosyl transferase (Zea mays, UniProt B4G072, A334K/F21Y/M279F/S117V/T220P); assay: as above; format: biochemical; conditions: lower block, concentration printed only in upper block: V 0.300, VII 0.210; IV, VIII, XI, XXI, XX, XVIII, XVI, XV, XIV 0.200; others 1.000 mM
T4 construct: His tag (C); made in house
Description: as §1, §2
(§5) The UDP-Glo™ reagents are made up and used according to the manufacturer's instructions. Thus, Nucleotide Detection Buffer and ATP are combined to make nucleotide detection reagent (NDR) dispensed into aliquots and frozen to be freshly thawed before use.
(§6) Km and kcat values in respect of UDP-glucose are derived by carrying out experiments to measure initial rates over a suitable range of concentrations of UDP glucose out at a fixed near saturating concentration of acceptor substrate. Best fit values of kcat, Km and kcat/Km are obtained by direct fitting of the data to the Michaelis-Menten equation using Graphpad Prism™ software.
(§7) Variants of C-terminally his tagged SEQ ID No:1 (w/t bx9 from Zea mays), exemplified as SEQ ID 16-30, were cloned, purified and assayed as described in Example 1. FIG. 4 depicts the data from some experiments to determine the kinetic parameters of some of these variants in respect of herbicide VI and table 12 summarizes the estimates of kinetic parameters obtained from further such experiments in respect of a range of herbicides.
as §4

[4] = target: T5, SEQ ID NO 21, mutant of Zea mays bx9 glucosyl transferase (Zea mays, UniProt B4G072, A334K/F21Y/L194V/M279F/S117V); assay: as above; format: biochemical; conditions: lower block, concentration printed only in upper block: V 0.300, VII 0.210; IV, VIII, XI, XXI, XX, XVIII, XVI, XV, XIV 0.200; others 1.000 mM
T5 construct: His tag (C); made in house
Description: as §1, §2, §5, §6, §7, §4

[5] = target: T6, SEQ ID NO 17, zmBX9 S117V, M279F, A334K mutant (Zea mays, UniProt B4G072, A334K/M279F/S117V); assay: as above; format: biochemical
T6 construct: polypeptides were the C-terminally his-tagged; His tag (C); made in house
Description: as §1, §2, §5, §6, §7, §4

[6] = target: T1, Zea mays bx9 glucosyl transferase (C-terminally his tagged SEQ ID NO: 1); assay: as above; format: biochemical; conditions: herbicide mM: V 0.300, VI 0.250, VII 0.210; IV, VIII, XI, XXI, XX, XVIII, XVI, XV, XIV 0.200; others 1.000
Description: as §1, §2, §5, §6

[7] = target: T7, SEQ ID NO 18, mutant of Zea mays bx9 glucosyl transferase (Zea mays, UniProt B4G072, A281K/A334K/F21Y/M279F/S117V); assay: as above; format: biochemical; conditions: herbicide mM: V 0.300, VI 0.250, VII 0.210; IV, VIII, XI, XXI, XX, XVIII, XVI, XV, XIV 0.200; others 1.000
T7 construct: His tag (C); made in house
Description: as §1, §2, §3, §4

[8] = target: T8, SEQ ID NO 20, mutant of Zea mays bx9 glucosyl transferase (Zea mays, UniProt B4G072, A281K/A334K/F21Y/L194V/M279F/S117V); format: biochemical; conditions: lower block, concentration printed only in upper block: V 0.300, VII 0.210; IV, VIII, XI, XXI, XX, XVIII, XVI, XV, XIV 0.200; others 1.000 mM
T8 construct: His tag (C); made in house
Description: as §1
as §2, with “herbicide.” for “herbicide. Typically, 300 pmol of UDP corresponds to a Relative Luminescence Unit (RLU) reading of about 1.5E7 and the response curve between 0 and 600 pmol is fitted to a polynomial function (see for example FIG. 2).”
as §5, §6
All of these proteins were C-terminally his-tagged, expressed and purified as described in Example 1. Assays were run and analyzed as described in example 1.

[9] = UDP luminescence plate assay of E. coli extracts, mutants of SEQ ID No: 1, 2 mM metribuzin; format: biochemical, Zea mays; conditions: for SIGNAL: metribuzin signal of mutant divided by the signal of w/t bx9 / luminescence signal observed with 2 mM metribuzin: 2 mM metribuzin; for SIGNAL: metribuzin signal of mutant divided by the signal of w/t bx9: relative to bx9 w/t; for luminescence signal in the DMSO control: mutants of SEQ ID No: 1, DMSO in place of metribuzin (background UDP-glucose hydrolysis); for luminescence signal observed with 2 mM metribuzin: mutants of SEQ ID No: 1 in E. coli extracts, UDP luminescence
In short: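 Extracts of E. coli BL21 DE3 expressing C-terminally His-tagged SEQ ID NO:1 variants incubated with 2 mM metribuzin; UDP formed read by UDP-Glo luminescence against a UDP standard curve, with optional 95 C stop. Mutants ranked by metribuzin/DMSO signal ratio and signal increase over wild-type bx9.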

[10] = UDP luminescence plate assay of E. coli extracts, saturation mutants of SEQ ID NO: 1, herbicide V; format: biochemical, Zea mays; conditions: improvement factor relative to w/t bx9 = 1.0, rounded to nearest 0.5; extract activity basis; compound V

T4 sequence (B4G072 whole entry F21Y/S117V/T220P/M279F/A334K): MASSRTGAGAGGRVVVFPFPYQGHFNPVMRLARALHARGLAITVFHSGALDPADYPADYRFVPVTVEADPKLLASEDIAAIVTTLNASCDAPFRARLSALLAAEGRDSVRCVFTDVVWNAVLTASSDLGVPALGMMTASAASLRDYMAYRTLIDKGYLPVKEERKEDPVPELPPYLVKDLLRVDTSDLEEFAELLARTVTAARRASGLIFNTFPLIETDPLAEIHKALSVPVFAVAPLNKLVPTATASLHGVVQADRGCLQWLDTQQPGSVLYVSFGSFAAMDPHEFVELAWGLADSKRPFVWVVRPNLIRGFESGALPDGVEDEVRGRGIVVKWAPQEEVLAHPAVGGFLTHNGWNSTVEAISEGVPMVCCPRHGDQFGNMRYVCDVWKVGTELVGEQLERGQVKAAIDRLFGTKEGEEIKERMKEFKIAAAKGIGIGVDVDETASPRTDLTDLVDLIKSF
T6 sequence (B4G072 whole entry S117V/M279F/A334K): as the sequence (B4G072 whole entry F21Y/S117V/T220P/M279F/A334K) above, with Y21F, P220T counted along it
T2 sequence (B4G072 whole entry F21Y/S117V/L194C/M279F/A334K): as the sequence (B4G072 whole entry F21Y/S117V/T220P/M279F/A334K) above, with L194C, P220T counted along it
T5 sequence (B4G072 whole entry F21Y/S117V/L194V/M279F/A334K): as the sequence (B4G072 whole entry F21Y/S117V/T220P/M279F/A334K) above, with L194V, P220T counted along it
T3 sequence (B4G072 whole entry S117V/L194V/M279F/A281K/A334K): as the sequence (B4G072 whole entry F21Y/S117V/T220P/M279F/A334K) above, with Y21F, L194V, P220T, A281K counted along it
T7 sequence (B4G072 whole entry F21Y/S117V/M279F/A281K/A334K): as the sequence (B4G072 whole entry F21Y/S117V/T220P/M279F/A334K) above, with P220T, A281K counted along it
T8 sequence (B4G072 whole entry F21Y/S117V/L194V/M279F/A281K/A334K): as the sequence (B4G072 whole entry F21Y/S117V/T220P/M279F/A334K) above, with L194V, P220T, A281K counted along it

Row | Molecule | Activity [3] | SIGNAL: metribuzin signal of mutant divided by the signal of w/t bx9 [9] | luminescence signal in the DMSO control [9] | luminescence signal observed with 2 mM metribuzin [9] | Most Preferred amino acid substitutions and (IF) based on RLU/min/ul [10] | other results
1 | CON1C(=O)N(c2cc(C(F)(F)F)c(C)cn2)C(O)[C@@H]1C (stereo partly drawn) [XV] | 1.530 pmol/sec/pmol enzyme | – | – | – | – | Activity [1]: 1.641 pmol/sec/pmol enzyme; Activity [2]: 1.391 pmol/sec/pmol enzyme; Activity [4]: 1.711 pmol/sec/pmol enzyme; Activity ([5]; herbicide mM: V 0.300, VI 0.250, VII 0.210, IV, VIII, XI, XXI, XX, XVIII, XVI, XV, XIV 0.200, others 1.000): 0.833 pmol/sec/pmol enzyme
2 | CSc1nnc(C(C)(C)C)c(=O)n1N [metribuzin] | – | – | – | – | – | increase in activity over bx9 w/t protein [5]: 1.3-1.5 ×
3 | C[C@@H]1C(O)N(c2cc(C(C)(C)C)on2)C(=O)N1C (stereo partly drawn) [VII] | 0.042 pmol/sec/pmol enzyme | – | – | – | – | Activity [6]: 0.000 pmol/sec/pmol enzyme; Activity [7]: 0.087 pmol/sec/pmol enzyme; Activity [8]: 0.049 pmol/sec/pmol enzyme
4 | T220H: bx9 SEQ ID NO:1 mutant (protein, Zea mays) MASSRTGAGAGGRVVVFPFPFQGHFNPVMRLARALHARGLAITVFHSGALDPADYPADYRFVPVTVEADPKLLASEDIAAIVTTLNASCDAPFRARLSALLAAEGRDSVRCVFTDVSWNAVLTASSDLGVPALGMMTASAASLRDYMAYRTLIDKGYLPVKEERKEDPVPELPPYLVKDLLRVDTSDLEEFAELLARTVTAARRASGLIFNTFPLIETDHLAEIHKALSVPVFAVAPLNKLVPTATASLHGVVQADRGCLQWLDTQQPGSVLYVSFGSMAAMDPHEFVELAWGLADSKRPFVWVVRPNLIRGFESGALPDGVEDEVRGRGIVVAWAPQEEVLAHPAVGGFLTHNGWNSTVEAISEGVPMVCCPRHGDQFGNMRYVCDVWKVGTELVGEQLERGQVKAAIDRLFGTKEGEEIKERMKEFKIAAAKGIGIGVDVDETASPRTDLTDLVDLIKSF | – | 1.82 | 5.47E+05 | 5.08E+05 | H,P(4.0) | –
5 | T220P: bx9 SEQ ID NO:1 mutant (protein, Zea mays) MASSRTGAGAGGRVVVFPFPFQGHFNPVMRLARALHARGLAITVFHSGALDPADYPADYRFVPVTVEADPKLLASEDIAAIVTTLNASCDAPFRARLSALLAAEGRDSVRCVFTDVSWNAVLTASSDLGVPALGMMTASAASLRDYMAYRTLIDKGYLPVKEERKEDPVPELPPYLVKDLLRVDTSDLEEFAELLARTVTAARRASGLIFNTFPLIETDPLAEIHKALSVPVFAVAPLNKLVPTATASLHGVVQADRGCLQWLDTQQPGSVLYVSFGSMAAMDPHEFVELAWGLADSKRPFVWVVRPNLIRGFESGALPDGVEDEVRGRGIVVAWAPQEEVLAHPAVGGFLTHNGWNSTVEAISEGVPMVCCPRHGDQFGNMRYVCDVWKVGTELVGEQLERGQVKAAIDRLFGTKEGEEIKERMKEFKIAAAKGIGIGVDVDETASPRTDLTDLVDLIKSF | – | 1.57 | 5.28E+05 | 4.40E+05 | H,P(4.0) | –
